Laboratory results from patent US20160024414A1, “IONIC LIQUIDS AS L[…] BASE STOCKS, COBASE STOCKS AND MULTI[…]” ([…] AND ENGINEERING COMPANY, priority 2012, published 2016).

Key:
[1] = Kinematic viscosity (ASTM D-445); assay type: physicochemical
Protocol: The kinematic viscosity (Kv) of the ionic liquid products of Examples 2-5, 7 and 8 was measured using ASTM standards D-445 and reported at temperatures of 100° C. (Kv at 100° C.) or 40° C. (Kv at 40° C.). The viscosity index (VI) was measured according to ASTM standard D-2270 using the measured kinematic viscosities for each product.

In the case of “1-butyl-3-hexylimidazolium bis(2-ethylhexyl) phosphate [Example 7]”, the “solubility in AN (alkylated naphthalene)” value (solvent: AN (alkylated naphthalene)) is reported as 5%.
With “dihexadecyldimethylammonium bis(2-ethylhexyl) phosphate [Example 8]” the “solubility in PAO4 (in words)” value (solvent: PAO4) was “soluble”.
For “tetradecylammonium bis(2-ethylhexyl) phosphate [Example 4]”, the “Kv100 (kinematic viscosity at 100° C.)” value [1] was over 150 cSt.
